Values quoted from earlier work in patent US20210002295A1, “SMALL MOLECULE DEGRADERS THAT RECRUIT DCAF15” (Dana-Farber Cancer Institute, Inc., priority 2017, published 2021).

Target: bromodomains of BET proteins
Details: stated for small molecule BET inhibitors

In the case of Cc1sc2c(c1C)C(c1ccc(Cl)cc1)=N[C@@H](CC(=O)OC(C)(C)C)c1nnc(C)n1-2 [JQ1], the Kd is listed as roughly 10 nM.
